Source: patent US11370822B2, “Self-assembling peptide for activating human mast cells” (The Governors of the University of Alberta, priority 2017, dated 2022)

Assays:
LAD2 cells = assay: Cell viability analysis using XTT assay
Method: LAD2 cells were suspended in culture medium (50 μl, 1.0×10^6 cells/ml) and placed on top of 50 μl of hydrogel matrix or culture medium solution. After an 4 h or 24 h incubation, cell viability was measured using a 2,3-bis-(2-methoxy-4-nitro-5-sulfophenyl)-2H-tetrazolium-5-carboxanilide (XTT) proliferation kit (Roche Molecular Biochemicals, Indianapolis, Ind., USA), according to the manufacturer's supplied instructions. To facilitate a uniform distribution of color throughout the hydrogel matrix, 50 μl of DMSO was added into each well prior to analysis.

TPSAB1 (tryptase) mRNA = assay: In vitro activation of mast cells in human skin, ddPCR for TPSAB1 expression; conditions: human skin without epidermis (NSE), 4 h; 10 μM PAMP-12, pure (RADA)4 matrix or matrix with 20% w/w (RADA)4-GG-(PAMP-12); NS average taken as 100
From the text: Human skin was harvested from abdominoplasty surgical discard specimens obtained following written informed consent as approved by the University of Alberta research ethics board. All tissue was from healthy non-smokers in their 30s. Human skin was separated from the underlying adipose tissue using a 15 blade scalpel. The epidermis was then removed using a […] dermatome (Integra LifeSciences Corporation, Cincinnati, Ohio) set to 0.25 mm thickness. The deepithelialized dermis was then divided into multiple pieces 1 cm^2 using sharp surgical scissors. Control or active hydrogel matrix (100 μl) was then layered onto the exposed surface of the dermis. […] For some groups, PBS and PAMP-12 PBS solution were used as negative and positive control. Following this, tissue pieces were removed and snap frozen in liquid nitrogen and stored at -80° C. until further processing. […] To obtain the absolute quantity of TPSAB1 transcripts, ddPCR (QX100, Bio-Rad, Hercules, Calif.) was employed using 5 ng of each cDNA sample and ddPCR supermix for the specific probes (Bio-Rad) according to manufacturer's protocols. […] QuantaSoft Software (Bio-Rad) was employed to analyze ddPCR results, and the absolute concentration of TPSAB1 transcripts in each sample determined by ddPCR was divided by the ACTB transcripts and presented as percentage based on normal skin samples (NS average taken as 100).

## CC(=O)N[C@@H](CCCNC(=N)N)C(=O)N[C@@H](C)C(=O)N[C@@H](CC(=O)O)C(=O)N[C@@H](C)C(=O)N[C@@H](CCCNC(=N)N)C(=O)N[C@@H](C)C(=O)N[C@@H](CC(=O)O)C(=O)N[C@@H](C)C(=O)N[C@@H](CCCNC(=N)N)C(=O)N[C@@H](C)C(=O)N[C@@H](CC(=O)O)C(=O)N[C@@H](C)C(=O)N[C@@H](CCCNC(=N)N)C(=O)N[C@@H](C)C(=O)N[C@@H](CC(=O)O)C(=O)N[C@@H](C)C(=O)NCC(=O)NCC(=O)N[C@@H](Cc1ccccc1)C(=O)N[C@@H](CCCNC(=N)N)C(=O)N[C@@H](CCCCN)C(=O)N[C@@H](CCCCN)C(=O)N[C@@H](Cc1c[nH]c2ccccc12)C(=O)N[C@@H](CC(N)=O)C(=O)N[C@@H](CCCCN)C(=O)N[C@@H](Cc1c[nH]c2ccccc12)C(=O)N[C@@H](C)C(=O)N[C@@H](CC(C)C)C(=O)N[C@@H](CO)C(=O)N[C@@H](CCCNC(=N)N)C(N)=O [(RADA)4-GG-(PAMP-12)]
LAD2 cells; PAMP-12 10 μM, 0.5% w/v hydrogel matrices (pure (RADA)4 or 20% w/w (RADA)4-GG-(PAMP-12)), 4 h or 24 h
  cytotoxicity to LAD2 cells (XTT): not cytotoxic
LAD2 cells; same treatments, after 24 h incubation
  effect on LAD2 proliferation (XTT): no statistically significant effect
TPSAB1 (tryptase) mRNA
  TPSAB1 expression level, normalized to ACTB: 191.1±12.0 percentage
